Source: PubChem BioAssay AID504926 (NMMLSC, 2011)
Activity calls are given as the source filed them.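 The calls were made as follows: active = compounds cutting yeast counts by over 60% at top dose, with positive span-based score; inactive = the rest.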

test system: S. cerevisiae growth, flow cytometry event count, 7 d; assay: S. cerevisiae cytotoxicity, flow cytometry event loss – powder samples, cytotoxicity control for yeast caloric restriction mimetic project, dose response (AID 504926); details: at 100 µM; hits give high values

Question: Which event count decrease does the source give for `Cc1ccccc1NC(=O)c1cccc2nc3ccccc3nc12` here?
Answer: Its event count decrease is -36% (inactive).

Question: `COc1ccc2cc(C3CC(c4ccco4)=NN3S(=O)(=O)c3ccccc3)c(Cl)nc2c1` (stereo not drawn) was tested. Which event count decrease did it give?
Answer: The event count decrease was 26% (inactive).

Question: Which event count decrease does the source give for `O=C(Nc1ccc2nc3ccccc3nc2c1)c1ccc(Br)cc1` here?
Answer: Its event count decrease is 68% (inactive).

Question: For `COc1ccc2nc3ccccc3nc2c1N`, which event count decrease is on record?
Answer: The event count decrease was -32% (inactive).

Question: `Cc1cc(C)c2[nH]c3nc(SCC(=O)O)nnc3c2c1` was tested. Which event count decrease did it give?
Answer: The event count decrease was 16% (inactive).

Question: For `Cc1cc2nc3ccc(N(C)C)cc3nc2cc1N`, which event count decrease is on record?
Answer: The event count decrease was -28% (inactive).

Question: With `[O-][n+]1c2ccccc2[n+]([O-])c2cc(O)ccc21` as the compound, how does the event count decrease read?
Answer: The event count decrease was 15% (inactive).

Question: With `O=C(Nc1cccc(Cl)c1)Nc1ccc2nccnc2c1` as the compound, how does the event count decrease read?
Answer: Its event count decrease is -73% (inactive).

Question: For `O=C(Nc1ccccc1)c1ccc2nccnc2c1`, which event count decrease is on record?
Answer: The event count decrease was -494% (inactive).

Question: `CC(C)CSc1nnc2c3ccccc3n(C)c2n1` was tested. Which event count decrease did it give?
Answer: Its event count decrease is -5% (inactive).

Question: With `O=C(CN1CCN(c2ccccn2)CC1)Nc1ccccc1F` as the compound, how does the event count decrease read?
Answer: Its event count decrease is -51% (inactive).

Question: For `Cc1cc(C)cc(NC(=O)CN2CCN(c3ccccn3)CC2)c1`, which event count decrease is on record?
Answer: Its event count decrease is 2% (inactive).

Question: For `O=C(c1cccc2nccnc12)N1CCN(c2ccccc2F)CC1`, which event count decrease is on record?
Answer: The event count decrease was 55% (inactive).

Question: Which event count decrease does the source give for `CC(C)(C)n1nc(-c2ccc(F)cc2)c2c(N)ncnc21` here?
Answer: The event count decrease was -56% (inactive).

Question: `C=CCSc1ccc(-c2ccc([N+](=O)[O-])cc2)o1` was tested. Which event count decrease did it give?
Answer: Its event count decrease is 40% (inactive).

Question: For `COc1ccc2nc3ccccc3nc2c1`, which event count decrease is on record?
Answer: The event count decrease was 35% (inactive).

Question: Which event count decrease does the source give for `C#CCSc1ccc(-c2ccc([N+](=O)[O-])cc2)o1` here?
Answer: The event count decrease was 21% (inactive).

Question: With `CC(C)(C)n1nc(-c2ccc(Cl)cc2)c2c(N)ncnc21` as the compound, how does the event count decrease read?
Answer: Its event count decrease is -87% (inactive).

Question: `N#CCc1nn(-c2ccccc2)c2ncnc(N)c12` was tested. Which event count decrease did it give?
Answer: The event count decrease was 31% (inactive).

Question: How did the event count decrease turn out when `CCC(=Nc1ccccc1O)C1=C(O)CC(c2ccccc2)CC1=O` (stereo not drawn) was run?
Answer: Its event count decrease is -11% (inactive).

Question: How did the event count decrease turn out when `CSc1nnc(-c2ccc([N+](=O)[O-])cc2)o1` was run?
Answer: Its event count decrease is 44% (inactive).

Question: For `C=CCOn1c(=O)c(-c2cccs2)[n+]([O-])c2ccccc21`, which event count decrease is on record?
Answer: Its event count decrease is -43% (inactive).

Question: Which event count decrease does the source give for `Cn1c(O)c(C(=Nc2ccc(F)cc2)c2ccccc2Cl)c(=O)n(C)c1=O` here?
Answer: The event count decrease was -114% (inactive).

Question: For `O=C(O)c1ccc2nccnc2c1`, which event count decrease is on record?
Answer: Its event count decrease is 47% (inactive).

Question: For `Oc1cccc2nc3ccccc3nc12`, which event count decrease is on record?
Answer: Its event count decrease is 69%.

Question: With `Cc1ccc(-c2nn(C(C)(C)C)c3ncnc(N)c23)cc1` as the compound, how does the event count decrease read?
Answer: Its event count decrease is -42% (inactive).

Question: Which event count decrease does the source give for `CCn1c2ccccc2c2n[nH]c(=S)nc21` here?
Answer: The event count decrease was -35% (inactive).

Question: With `O=C(Nc1cccc2nccnc12)c1ccccc1` as the compound, how does the event count decrease read?
Answer: Its event count decrease is 16% (inactive).

Question: `Nc1cc2nc3ccccc3nc2cc1N` was tested. Which event count decrease did it give?
Answer: The event count decrease was -45% (inactive).

Question: How did the event count decrease turn out when `CCc1nc(NC(C)(C)C)c2cnn(-c3ccccc3)c2n1` was run?
Answer: Its event count decrease is 52% (inactive).

Question: For `COc1ccc2nc3ccccc3[n+]([O-])c2c1`, which event count decrease is on record?
Answer: The event count decrease was 41% (inactive).

Question: With `COc1ccc2nc3ccccc3nc2c1NC(=O)c1ccccc1Cl` as the compound, how does the event count decrease read?
Answer: Its event count decrease is 43% (inactive).

Question: How did the event count decrease turn out when `CCN(CC)C(=O)c1ccc2nc3ccccc3nc2c1` was run?
Answer: Its event count decrease is -99% (inactive).

Question: `O=C1c2c(O)ccc(O)c2C(=O)c2c(NCCNCCO)ccc(NCCNCCO)c21` was tested. Which event count decrease did it give?
Answer: Its event count decrease is -180% (inactive).

Question: How did the event count decrease turn out when `CN(C)CCNc1ncnc2c1cnn2-c1ccc(Cl)cc1` was run?
Answer: Its event count decrease is 19% (inactive).

Question: Which event count decrease does the source give for `O=C(c1cccc2nc3ccccc3nc12)N1CCOCC1` here?
Answer: Its event count decrease is -106% (inactive).

Question: Which event count decrease does the source give for `CN1CCN(C(=O)c2ccc3nccnc3c2)CC1` here?
Answer: The event count decrease was -332% (inactive).

Question: Which event count decrease does the source give for `O=C(Nc1ccc2nccnc2c1)N1CCOCC1` here?
Answer: Its event count decrease is -21% (inactive).

Question: With `c1ccc2nc3ccccc3nc2c1` as the compound, how does the event count decrease read?
Answer: The event count decrease was 41% (inactive).

Question: `O=C(/C=C/c1ccccc1)NC(=S)NNC(=O)Cc1cccs1` was tested. Which event count decrease did it give?
Answer: Its event count decrease is 57% (inactive).

Question: How did the event count decrease turn out when `CC(C)OC(=O)CSc1nnc(-c2ccc(Cl)cc2Cl)o1` was run?
Answer: Its event count decrease is 41% (inactive).

Question: How did the event count decrease turn out when `O=C(Nc1ccc2nccnc2c1)N1CCN(c2ccccc2)CC1` was run?
Answer: The event count decrease was -25% (inactive).

Question: Which event count decrease does the source give for `CNc1ccc2nc3ccccc3[n+](C)c2c1` here?
Answer: The event count decrease was 45% (inactive).

Question: With `CCN(CC)C(=O)c1cccc2nc3ccccc3nc12` as the compound, how does the event count decrease read?
Answer: Its event count decrease is -36% (inactive).

Question: For `CCN(CC)C(=O)CSc1nnc(-c2cccc(OC)c2)o1`, which event count decrease is on record?
Answer: Its event count decrease is -66% (inactive).

Question: With `CC(=O)Nc1ccc2nc3ccccc3nc2c1` as the compound, how does the event count decrease read?
Answer: The event count decrease was 43% (inactive).

Question: With `C[C@@]12C(=O)OC(=O)[C@]1(C)C1CCC2O1` as the compound, how does the event count decrease read?
Answer: Its event count decrease is 88%.

Question: For `COc1ccc2c(c1)c1nnc(SC)nc1n2C`, which event count decrease is on record?
Answer: The event count decrease was -72% (inactive).

Question: How did the event count decrease turn out when `O=C(Nc1ccc2nccnc2c1)c1cccc2nccnc12` was run?
Answer: The event count decrease was 95% (inactive).

Question: With `O=C(c1ccc2nccnc2c1)N1CCN(c2ccccc2)CC1` as the compound, how does the event count decrease read?
Answer: Its event count decrease is -299% (inactive).

Question: For `O=C(/C=C/c1cccs1)NC(=S)NNC(=O)Cc1cccs1`, which event count decrease is on record?
Answer: The event count decrease was 81%.

Question: With `O=C(c1ccc2nccnc2c1)N1CCCCC1` as the compound, how does the event count decrease read?
Answer: The event count decrease was -141% (inactive).

Question: How did the event count decrease turn out when `FC(F)(F)c1nc2cc3nc4ccccc4[nH]c3cc2n1` was run?
Answer: Its event count decrease is -72% (inactive).

Question: With `CC(C)OC(=O)c1ccc2nc3ccccc3nc2c1` as the compound, how does the event count decrease read?
Answer: The event count decrease was 4% (inactive).

Question: Which event count decrease does the source give for `O=C(OCc1c(F)cccc1Cl)c1cnc2ccccc2n1` here?
Answer: The event count decrease was 53% (inactive).

Question: With `OCC[n+]1c2ccccc2nc2ccc(N3CCOCC3)cc21` as the compound, how does the event count decrease read?
Answer: Its event count decrease is 19% (inactive).

Question: With `O=C(O)c1cnc2ccccc2n1` as the compound, how does the event count decrease read?
Answer: Its event count decrease is 7% (inactive).

Question: `CC(C)(C)NC(=O)Nc1ccc2nccnc2c1` was tested. Which event count decrease did it give?
Answer: Its event count decrease is -56% (inactive).

Question: Which event count decrease does the source give for `CC(C)(C)Nc1ncnc2c1cnn2-c1ccccc1` here?
Answer: The event count decrease was 18% (inactive).

Question: Which event count decrease does the source give for `O=C(c1cccc2nccnc12)N1CCOc2ccccc21` here?
Answer: Its event count decrease is -51% (inactive).

Question: `Nc1ccc2nccnc2c1` was tested. Which event count decrease did it give?
Answer: Its event count decrease is -19% (inactive).

Question: For `C[n+]1c2ccccc2nc2ccc(NCCO)cc21`, which event count decrease is on record?
Answer: The event count decrease was 56% (inactive).

Question: How did the event count decrease turn out when `COc1cccc2nc3cc(C)c(C)cc3nc12` was run?
Answer: Its event count decrease is 56% (inactive).

Question: For `O=C(O)c1cccc2nccnc12`, which event count decrease is on record?
Answer: Its event count decrease is -180% (inactive).

Question: How did the event count decrease turn out when `CN(C)C(=O)c1ccc2nccnc2c1` was run?
Answer: The event count decrease was -100% (inactive).

Question: For `O=c1[nH]c(O)c(C=Nc2ccc(F)c(Cl)c2)c(=O)[nH]1`, which event count decrease is on record?
Answer: Its event count decrease is 27% (inactive).

Question: For `CCN(CC)c1ccc2nc3ccc(N)cc3[n+](-c3ccccc3)c2c1`, which event count decrease is on record?
Answer: The event count decrease was -22% (inactive).

Question: How did the event count decrease turn out when `O=C(Nc1ccc2nccnc2c1)NC1CCCCC1` was run?
Answer: Its event count decrease is 8% (inactive).

Question: For `O=C(NCc1ccccc1)c1ccc2nccnc2c1`, which event count decrease is on record?
Answer: Its event count decrease is 80% (inactive).

Question: With `N#CC(c1nc2ccccc2nc1N1CCCC1)S(=O)(=O)c1ccccc1` (stereo not drawn) as the compound, how does the event count decrease read?
Answer: Its event count decrease is 51% (inactive).

Question: Which event count decrease does the source give for `CCCCCNC(=O)C(=O)C1C(=O)Nc2ccccc21` (stereo not drawn) here?
Answer: Its event count decrease is 66%.

Question: With `c1ccc2[nH]c3cc4ncnc4cc3nc2c1` as the compound, how does the event count decrease read?
Answer: Its event count decrease is -129% (inactive).

Question: How did the event count decrease turn out when `Cn1c(=O)[nH]c2nncnc2c1=O` was run?
Answer: Its event count decrease is 24% (inactive).
